One experiment concerns the target MMP-13 (Homo sapiens, UniProt P45452). Put plainly: MMP-13 inhibition (thiopeptide or fluorescent peptide substrate). It is filed as biochemical.
A further experiment deals with TACE (Homo sapiens, UniProt P78536). Put plainly: TACE inhibition (fluorescent peptidyl substrate). Type of experiment: biochemical. As to conditions: read-out: TACE IC50.
The target in the next experiment is MMP-9 (Homo sapiens, UniProt P14780). Nature of the experiment: MMP-9 inhibition (thiopeptide or fluorescent peptide substrate). Type of experiment: biochemical.
Chain of MMP-9 (P14780 107-707 limits assumed): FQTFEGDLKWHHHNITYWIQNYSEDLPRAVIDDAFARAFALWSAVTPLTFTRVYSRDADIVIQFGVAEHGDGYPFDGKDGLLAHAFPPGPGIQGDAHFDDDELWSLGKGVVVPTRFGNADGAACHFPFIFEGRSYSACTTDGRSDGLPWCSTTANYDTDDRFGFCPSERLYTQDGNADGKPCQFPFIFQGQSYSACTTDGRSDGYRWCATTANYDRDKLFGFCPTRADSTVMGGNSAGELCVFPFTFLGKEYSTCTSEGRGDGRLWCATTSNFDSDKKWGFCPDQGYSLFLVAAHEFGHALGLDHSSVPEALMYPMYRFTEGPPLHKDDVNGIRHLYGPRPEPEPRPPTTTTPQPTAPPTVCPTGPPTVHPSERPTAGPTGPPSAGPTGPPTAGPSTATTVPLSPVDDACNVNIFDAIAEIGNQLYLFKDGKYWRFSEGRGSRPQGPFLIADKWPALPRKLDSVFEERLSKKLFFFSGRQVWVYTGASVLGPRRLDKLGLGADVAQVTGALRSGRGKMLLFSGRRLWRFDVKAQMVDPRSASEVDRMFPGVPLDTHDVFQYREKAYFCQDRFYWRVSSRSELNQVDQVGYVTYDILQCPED
The next experiment concerns THP-1 cells. Put plainly: THP-1 Soluble Protein Assay (LPS-stimulated; ELISA of TNF-a, TNF-R p75/80, TNF-R p55/60, IL-8). It is filed as cell-based, human. As to conditions: for inhibition at 3 µM: Homo sapiens.
Another experiment concerns the target T1, MMP-1 (Homo sapiens, UniProt P03956).
T1 sequence (P03956 100-469): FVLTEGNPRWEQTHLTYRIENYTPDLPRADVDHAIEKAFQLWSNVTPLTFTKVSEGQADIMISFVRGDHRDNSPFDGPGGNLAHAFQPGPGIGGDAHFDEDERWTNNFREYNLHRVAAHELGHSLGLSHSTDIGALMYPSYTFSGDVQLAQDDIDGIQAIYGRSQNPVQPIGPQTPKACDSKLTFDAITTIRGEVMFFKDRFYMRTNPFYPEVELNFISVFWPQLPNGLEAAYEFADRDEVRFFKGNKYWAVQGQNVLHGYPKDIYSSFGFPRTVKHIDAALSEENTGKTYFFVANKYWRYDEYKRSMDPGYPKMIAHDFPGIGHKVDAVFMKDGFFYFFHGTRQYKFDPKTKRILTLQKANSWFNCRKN
Nature of the experiment: MMP-1 inhibition (thiopeptide or fluorescent peptide substrate). Type of experiment: biochemical.

The mark [1] stands for this setting: THP-1, read-out: THP % inhibition @ 3 µM, 3 µM.
Where [2] appears, read: THP-1, 3 µM, read-out: THP % Inhibition @ 3µM.

Counter-ions that a name gives are not always drawn. Like-named read-outs stand apart in the source and are kept apart here.

Chain of TACE (P78536 215-824): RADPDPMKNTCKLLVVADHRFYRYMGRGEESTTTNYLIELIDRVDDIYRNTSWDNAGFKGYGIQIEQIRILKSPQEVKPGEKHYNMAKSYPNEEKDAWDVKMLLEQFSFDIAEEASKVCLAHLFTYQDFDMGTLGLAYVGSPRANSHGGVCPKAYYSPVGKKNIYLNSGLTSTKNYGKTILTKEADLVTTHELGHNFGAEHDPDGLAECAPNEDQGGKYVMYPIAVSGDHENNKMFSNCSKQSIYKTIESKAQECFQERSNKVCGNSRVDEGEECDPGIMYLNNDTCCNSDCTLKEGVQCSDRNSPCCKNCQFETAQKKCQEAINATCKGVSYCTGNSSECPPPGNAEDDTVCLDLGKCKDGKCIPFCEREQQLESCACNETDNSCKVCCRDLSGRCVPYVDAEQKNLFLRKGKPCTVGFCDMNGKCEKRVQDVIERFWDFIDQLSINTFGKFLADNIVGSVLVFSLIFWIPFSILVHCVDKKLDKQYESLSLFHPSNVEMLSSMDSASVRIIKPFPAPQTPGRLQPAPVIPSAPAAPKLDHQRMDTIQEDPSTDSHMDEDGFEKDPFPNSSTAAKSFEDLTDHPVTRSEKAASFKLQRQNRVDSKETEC
Method for MMP-13: (§1) The enzyme activity is measured by the rate of the color increase. The thiopeptide substrate is made up fresh as a 20 mM stock in 100% DMSO and the DTNB is dissolved in 100% DMSO as a 100 mM stock and stored in the dark at room temperature. Both the substrate and DTNB are diluted together to 1 mM with substrate buffer (50 mM HEPES pH 7.5, 5 mM CaCl2) before use. The stock of enzyme is diluted with buffer (50 mM HEPES, pH 7.5, 5 mM CaCl2, 0.02% Brij) to the desired final concentration.
(§2) Alternatively, a fluorescent peptide substrate is used. In this test procedure, the peptide substrate contains a fluorescent group and a quenching group. Upon cleavage of the substrate by an MMP, the fluorescence that is generated is quantitated on the fluorescence plate reader. The assay is run in HCBC assay buffer (50mM HEPES, pH 7.0, 5 mM Ca^+2, 0.02% Brij, 0.5% Cysteine), with human recombinant MMP-1, MMP-9, or MMP-13. The substrate is dissolved in methanol and stored frozen in 1 mM aliquots. For the assay, substrate and enzymes are diluted in HCBC buffer to the desired concentrations. Compounds are added to the 96 well plate containing enzyme and the reaction is started by the addition of substrate.
(§3) For either the thiopeptide or fluorescent peptide test procedures, the slope of the line is calculated and represents the reaction rate. The linearity of the reaction rate is confirmed (r^2 >0.85). The mean (x±sem) of the control rate is calculated and compared for statistical significance (p<0.05) with drug-treated rates using Dunnett's multiple comparison test.
Method for MMP-9: as §1, §2, §3
Method for TACE: Using 96-well black microtiter plates, each well receives a solution composed of 10 µL TACE (final concentration 1µg/mL), 70µL Tris buffer, pH 7.4 containing 10% glycerol (final concentration 10 mM), and 10 µL of test compound solution in DMSO (final concentration 1µM, DMSO concentration <1%) and incubated for 10 minutes at room temperature.
The reaction is read (excitation 340 nm, emission 420 nm) for 10 min. and the increase in fluorescence over time is plotted as a linear line. The slope of the line is calculated and represents the reaction rate.
The linearity of the reaction rate is confirmed (r^2 >0.85). The mean (x±sem) of the control rate is calculated and compared for statistical significance (p<0.05) with drug-treated rates using Dunnett's multiple comparison test.

In the case of `C#CCNc1ccc(S(=O)(=O)N(C)CC(=O)NO)cc1` [Example 133, N-Hydroxy-2-(methyl{[4-(prop-2-ynylamino)phenyl]sulfonyl}amino)acetamide], the IC50 against MMP-13 is 751 nM; on TACE it was 120 nM; on MMP-9, 1510 nM. Moreover, in the experiment with THP-1 cells (setting [1]), the inhibition at 3 µM was determined as 8%.
For the compound `CC#CCOc1ccc(S(=O)(=O)N(C)C(C(=O)NO)c2ccc(OCCCNC(=O)OCc3ccccc3)cc2)cc1` (stereo not shown) [Example 196, Benzyl3-{4-[1-[{[4-(2-butynyloxy)phenyl]sulfonyl}(methyl)amino]-2-(hydroxyamino)-2-oxoethyl]phenoxy}propylcarbamate], in the experiment on THP-1 cells (setting [1]), the inhibition at 3 µM is 87%. Moreover, the “MMP-1 %@1” value on MMP-1 (@1 (concentration unit not given)) is reported as 25%@1.
`CC#CCOc1ccc(S(=O)(=O)N(C)C(CSCc2cccnc2)C(=O)NO)cc1` (stereo not shown) [Example 155, 2-[(4-But-2-ynyloxy-benenesulfonyl)-methyl-amino]-N-hydroxy-3-(pyridin-3-ylmethylsulfanyl)-butyramide] registered an IC50 against MMP-9 of 14 nM. Further, the inhibition at 3 µM in the experiment on THP-1 cells (setting [1]) was found to be 93%.
Consider `CC#CCOc1ccc(S(=O)(=O)N2CCSC(CC)(CC)C2C(=O)NO)cc1` (stereo not shown) [Example 238], for which the IC50 came out at 6.8 nM against MMP-13, 228 nM on TACE and 38 nM at MMP-1. Moreover, the inhibition at 3 µM with THP-1 cells (setting [1]) was determined as 73%.
Regarding `CC#CCOc1ccc(S(=O)(=O)N(C)C(CSCc2ccccc2)C(=O)NO)cc1` (stereo not shown) [Example 156, 3-(Benzylthio) -2-[[[4-(2-butynyloxy)phenyl]sulfonyl]methylamino] -N-hydroxypropanamide], the IC50 turned out to be 4.5 nM at MMP-13, 4.8 nM at TACE and 11 nM on MMP-9. Also, in the experiment on THP-1 cells (setting [1]), the inhibition at 3 µM was found to be 75%.
For `CC#CCOc1ccc(S(=O)(=O)N2CCN(C)CCC2C(=O)NO)cc1` (stereo not shown) [Example 293, 4-{[4-(2-Butynyloxy)phenyl]sulfonyl}-N-hydroxy-1-methyl-1,4-diazepane-5-carboxamide], the 50% inhibitory concentration (IC50) on MMP-13 was found to be 21 nM. Further, the inhibition at 3 µM with THP-1 cells (setting [2]) was found to be 82%.
Regarding “9-({[4-(2-Butynyloxy)phenyl]sulfonyl}-N-hydroxy-1-thia-4-azaspiro [5,5]undecane-5-carboxamide [Example 237]”, the IC50 at MMP-13 is 12 nM; on TACE, 212 nM; against MMP-1 it was 62 nM. The “THP % inhibition @ 3 µM” value in the experiment on THP-1 cells came out at 90%.
As to `CC#CCOc1ccc(S(=O)(=O)N2C[C@H](CN)SC(C)(C)[C@@H]2C(=O)NO)cc1` [Example 276, (3S,6S)-Cis-6-(aminomethyl)-4-{[4-(2-butynyloxy)phenyl]sulfonyl}-N-hydroxy-2,2-dimethyl-3-thiomorpholinecarboxamide hydrochloride], the half-maximal inhibitory concentration (IC50) against MMP-9 came out at 64 nM. Also, the inhibition at 3 µM in the experiment on THP-1 cells (setting [2]) came out at 94%.
For `CC#CCOc1ccc(S(=O)(=O)N2CCSC(C)(C)C2C(=O)NO)cc1` (stereo not shown) [235, 38], the figures for the IC50 at TACE and against MMP-1 were 8.4 nM and 6.6 nM, respectively. Also, the inhibition at 3 µM in the experiment on THP-1 cells (setting [1]) worked out at 94%.
`CC#CCOc1ccc(S(=O)(=O)N2CCN(C(=O)c3ccccc3)CCC2C(=O)NO)cc1` (stereo not shown) [Example 289, 1-Benzoyl-4-{[4-(2-butynyloxy)phenyl]sulfonyl}-N-hydroxy-1,4-diazepane-5-carboxamide] returned an IC50 against MMP-13 of 4 nM.
For the compound `CC#CCOc1ccc(S(=O)(=O)N(C)CC(=O)NO)cc1` [Example 17, 2-[(4-But-2-ynyloxy-benzenesulfonyl)-methyl-amino]-N-hydroxy-acetamide], the IC50 is 99 nM against MMP-13 and 1900 nM on MMP-1. In addition, the inhibition at 3 µM in the experiment on THP-1 cells (setting [1]) came to 33%.
Turning to `CC#CCOc1ccc(S(=O)(=O)N2CC(CNC(=O)OC(C)(C)C)SC(C)(C)C2C(=O)NO)cc1` [Example 274, tert-Butyl{(2S,5S)-4-{[4-(2-butynyloxy)phenyl]sulfonyl}-5-[(hydroxyamino)carbonyl]-6,6-dimethylthiomorpholinyl}methylcarbamate], the IC50 at TACE (Tables 11-14) was 59 nM; on MMP-9 it was 107 nM. Further, in the experiment on THP-1 cells, the “THP % inhibition @ 3 µM” value is reported as 84%.

Values taken from patent publication EP1144368B1, “ACETYLENIC ALPHA-AMINO ACID-BASED SULFONAMIDE HYDROXAMIC ACID TACE INHIBITORS” (priority 1999, dated 2000).
